Test results taken from US20170240535A1, “HDAC1/2 INHIBITORS FOR THE TREATMENT OF NEURODEGENERATIVE AND/OR COGNITIVE DISORDERS” (Regenacy Pharmaceuticals, LLC, priority 2016, published 2017).
Entries after “also recorded” stand apart in the source; their conditions may differ.

Key:
[1] = system: APPSwDI/NOS2−/− transgenic mice; experiment: Radial arm water maze (RAWM) in APPSwDI/NOS2−/− model of Alzheimer's disease; assay type: in vivo; details: 10 mg/kg orally daily for 4 weeks; for RAWM escape latency / RAWM number of errors: vs vehicle treated transgenic / wild type
Description: The ability of HDAC1/2 inhibitor Compound 1 to improve cognitive deficits of APPSwDI/NOS2−/− transgenic mice was tested in the radial arm water maze (RAWM).
The Study was performed on APPSwDI/NOS2−/− transgenic (mouse model of Alzheimer's disease) as well as non-transgenic mice, bred at Charles River (Finland). Animals for the main study are 10.5 months old at start. A total number of 45 transgenic (divided into 22 untreated and 23 treated) and 25 non-transgenic controls are used for the study
Transgenic mice are allocated to two different treatment groups, either treated with vehicle (20% HP-β-CD in water) or Compound 1 (dosage 10 mg/kg) administered orally via gavage daily for 4 weeks total. The application volume is 10 ml/kg/dose whereby each animal is weighed once a week and receives a volume according to its individual actual weight.
Spatial learning capacities of all animals were tested in the Radial Arm Water Maze (RAWM). Briefly a six arm maze was submerged in a pool of water, and a platform was placed at the end of one arm. The mouse received 15 trials per day for 2 days and on each trial was started in a different arm while the arm containing the platform remained the same for each mouse. The first 10 trials were considered training and alternated between a visible and a hidden platform. The final trials for day 1 and all trials on day 2 were tested with a hidden platform. The number of errors (incorrect arm entries) were counted over a 1 min period. The errors were averaged over six trials resulting in 5 blocks for the 2 day period. Latency to find the platform was also recorded, and averaged similarly as the errors.

HDAC2 = target: T1, HDAC2 (Homo sapiens, UniProt Q92769); experiment: HDAC enzyme assay, HDAC2; assay type: biochemical; details: enzyme and compound incubated 24 hours at room temperature
T1 construct: purchased BPS Biosciences
T1 sequence (Q92769 whole entry): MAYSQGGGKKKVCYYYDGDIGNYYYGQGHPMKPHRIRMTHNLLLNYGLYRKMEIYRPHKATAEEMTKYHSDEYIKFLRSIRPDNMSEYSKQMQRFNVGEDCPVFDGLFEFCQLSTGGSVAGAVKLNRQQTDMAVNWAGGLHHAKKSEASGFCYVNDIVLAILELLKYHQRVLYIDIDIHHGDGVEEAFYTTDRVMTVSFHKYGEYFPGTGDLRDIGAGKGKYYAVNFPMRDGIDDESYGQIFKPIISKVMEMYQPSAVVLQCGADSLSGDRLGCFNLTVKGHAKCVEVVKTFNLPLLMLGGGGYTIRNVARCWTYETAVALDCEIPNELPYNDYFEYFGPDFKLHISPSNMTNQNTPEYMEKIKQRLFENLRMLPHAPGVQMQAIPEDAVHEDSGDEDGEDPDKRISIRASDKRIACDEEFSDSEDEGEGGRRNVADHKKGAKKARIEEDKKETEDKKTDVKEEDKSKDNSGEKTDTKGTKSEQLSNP
Description: Compounds for testing were diluted in DMSO to 50 fold the final concentration and a ten point three fold dilution series was made. The compounds were diluted in assay buffer (50 mM HEPES, pH 7.4, 100 mM KCl, 0.001% Tween-20, 0.05% BSA, 20 μM TCEP) to 6 fold their final concentration. The HDAC enzymes (purchased from BPS Biosciences) were diluted to 1.5 fold their final concentration in assay buffer. The tripeptide substrate and trypsin at 0.05 μM final concentration were diluted in assay buffer at 6 fold their final concentration. The final enzyme concentrations used in these assays were 3.3 ng/ml (HDAC1), 0.2 ng/ml (HDAC2) and 0.08 ng/ml (HDAC3). The final substrate concentrations used were 16 μM (HDAC1), 10 μM (HDAC2) and 17 μM (HDAC3). Five μl of compound and 20 μl of enzyme were added to wells of a black, opaque 384 well plate in duplicate. Enzyme and compound were incubated together at room temperature for 24 hours. Five μl of substrate was added to each well, the plate was shaken for 60 seconds and placed into a Victor 2 microtiter plate reader. The development of fluorescence was monitored for 60 min and the linear rate of the reaction was calculated. The IC50 was determined using Graph Pad Prism by a four parameter curve fit.

[2] = APPSwDI/NOS2−/− mice, listed as compound 1, 10 mg/kg

Nc1ccc(-c2ccccc2)cc1NC(=O)c1cc2ccc(N3CCNCC3)cc2cn1 [Compound 1]
tolerability ([1]; APPSwDI/NOS2−/− mice): very well tolerated in all animals | learning behavior during training ([1]; APPSwDI/NOS2−/− mice, vs vehicle treated transgenic): significantly better learning behavior | RAWM escape latency ([1]; APPSwDI/NOS2−/− mice, 10 mg/kg): improved escape latency time; also recorded: reversed the increased latency | RAWM number of errors ([1]; APPSwDI/NOS2−/− mice, 10 mg/kg): decrease in the number of errors; also recorded: reversed the increased latency and number of errors | RAWM escape latency [1, 2]: not statistically different from wild type mice | RAWM number of errors [1, 2]: not statistically different from wild type mice | body weight ([1]; treatment groups): no differences in body weight | IC50 (HDAC2): 13 nM
